Measured values from the NIST ThermoML archive (doi:10.1016/j.jct.2015.05.024).
Numbers after ± are expanded uncertainties.

Assay: xn = mol fraction of the nth substance listed
Conditions: 100 kPa, Liquid; for speed of sound: Frequency=5 MHz, Pulse-echo method; for mass density: Vibrating tube method

OCCOCCOCCO [triethylene glycol] + O
Conditions	mass density [kg/m3]	speed of sound [m/s]
293.15 K, x1 = 0.0107	1010.53 ± 0.24	–
293.15 K, x1 = 0.02047	1020.73 ± 0.22	–
293.15 K, x1 = 0.03972	1038.14 ± 0.21	–
293.15 K, x1 = 0.04979	1045.97 ± 0.18	–
293.15 K, x1 = 0.06996	1059.39 ± 0.17	–
293.15 K, x1 = 0.09424	1072.14 ± 0.14	–
293.15 K, x1 = 0.1481	1091 ± 0.14	–
293.15 K, x1 = 0.1752	–	1744.6 ± 1.1
293.15 K, x1 = 0.1869	–	1743.5 ± 1.1
293.15 K, x1 = 0.2006	1101.53 ± 0.14	–
293.15 K, x1 = 0.2052	–	1740.7 ± 1.1
293.15 K, x1 = 0.2239	–	1736.8 ± 1.1
293.15 K, x1 = 0.2502	1107.61 ± 0.14	–
293.15 K, x1 = 0.2513	–	1730.1 ± 1.1
293.15 K, x1 = 0.2755	–	1723.7 ± 1.1
293.15 K, x1 = 0.2988	1111.51 ± 0.15	–
293.15 K, x1 = 0.3023	–	1716.7 ± 1.1
293.15 K, x1 = 0.3492	1114.3 ± 0.16	–
293.15 K, x1 = 0.3754	–	1699 ± 1.2
293.15 K, x1 = 0.3925	1116.06 ± 0.16	–
293.15 K, x1 = 0.4338	–	1686.6 ± 1.2
293.15 K, x1 = 0.4502	1117.81 ± 0.17	–
293.15 K, x1 = 0.4877	1118.7 ± 0.18	–
293.15 K, x1 = 0.5004	1118.97 ± 0.18	–
293.15 K, x1 = 0.5151	–	1671.3 ± 1.2
293.15 K, x1 = 0.5739	1120.23 ± 0.2	–
293.15 K, x1 = 0.58	1120.32 ± 0.2	–
293.15 K, x1 = 0.6233	–	1654.9 ± 1.2
293.15 K, x1 = 0.6465	1121.14 ± 0.21	–
293.15 K, x1 = 0.651	1121.19 ± 0.21	–
293.15 K, x1 = 0.7008	1121.67 ± 0.23	–
293.15 K, x1 = 0.7471	1122.06 ± 0.24	–
293.15 K, x1 = 0.7677	1122.21 ± 0.24	–
293.15 K, x1 = 0.7815	–	1641.2 ± 1.3
293.15 K, x1 = 0.82	1122.57 ± 0.26	–
293.15 K, x1 = 0.8623	1122.83 ± 0.28	–
293.15 K, x1 = 0.8792	1122.93 ± 0.28	–
293.15 K, x1 = 0.8924	–	1634.7 ± 1.4
293.15 K, x1 = 0.8975	1123.03 ± 0.29	–
293.15 K, x1 = 0.9203	1123.15 ± 0.3	–
293.15 K, x1 = 0.9514	1123.32 ± 0.31	–
293.15 K, x1 = 0.9634	–	1630.2 ± 1.4
293.15 K, x1 = 0.9692	1123.41 ± 0.32	–
293.15 K, x1 = 1	1123.56 ± 0.33	1629 ± 1.4
298.15 K, x1 = 0.000655	–	1499.7 ± 1.3
298.15 K, x1 = 0.003093	–	1510.2 ± 1.3
298.15 K, x1 = 0.008719	–	1533.1 ± 1.3
298.15 K, x1 = 0.0107	1009.15 ± 0.24	–
298.15 K, x1 = 0.01513	–	1557 ± 1.2
298.15 K, x1 = 0.02047	1019.12 ± 0.21	–
298.15 K, x1 = 0.02053	–	1575.4 ± 1.2
298.15 K, x1 = 0.0297	–	1603.3 ± 1.2
298.15 K, x1 = 0.03817	–	1625.7 ± 1.2
298.15 K, x1 = 0.03972	1036.1 ± 0.2	–
298.15 K, x1 = 0.04526	–	1642.1 ± 1.1
298.15 K, x1 = 0.04979	1043.71 ± 0.18	–
298.15 K, x1 = 0.05106	–	1654.1 ± 1.1
298.15 K, x1 = 0.05839	–	1667.6 ± 1.1
298.15 K, x1 = 0.0674	–	1681.9 ± 1.1
298.15 K, x1 = 0.06996	1056.75 ± 0.16	–
298.15 K, x1 = 0.0766	–	1694.1 ± 1.1
298.15 K, x1 = 0.08268	–	1701 ± 1.1
298.15 K, x1 = 0.08879	–	1707 ± 1.1
298.15 K, x1 = 0.09424	1069.14 ± 0.14	–
298.15 K, x1 = 0.09568	–	1712.9 ± 1.1
298.15 K, x1 = 0.1024	–	1717.7 ± 1.1
298.15 K, x1 = 0.1041	–	1718.8 ± 1.1
298.15 K, x1 = 0.1099	–	1722.2 ± 1.1
298.15 K, x1 = 0.1152	–	1724.8 ± 1.1
298.15 K, x1 = 0.1205	–	1727 ± 1.1
298.15 K, x1 = 0.127	–	1729.3 ± 1.1
298.15 K, x1 = 0.1291	–	1729.9 ± 1.1
298.15 K, x1 = 0.1383	–	1731.9 ± 1.1
298.15 K, x1 = 0.1474	–	1733.1 ± 1.1
298.15 K, x1 = 0.1481	1087.52 ± 0.14	–
298.15 K, x1 = 0.1587	–	1733.7 ± 1.1
298.15 K, x1 = 0.1675	–	1733.4 ± 1.1
298.15 K, x1 = 0.1757	–	1732.8 ± 1.1
298.15 K, x1 = 0.1834	–	1731.9 ± 1.1
298.15 K, x1 = 0.2006	1097.87 ± 0.14	–
298.15 K, x1 = 0.2026	–	1728.7 ± 1.1
298.15 K, x1 = 0.221	–	1724.7 ± 1.1
298.15 K, x1 = 0.2393	–	1720.1 ± 1.1
298.15 K, x1 = 0.2502	1103.88 ± 0.14	–
298.15 K, x1 = 0.2566	–	1715.5 ± 1.1
298.15 K, x1 = 0.2906	–	1706.3 ± 1.1
298.15 K, x1 = 0.2988	1107.76 ± 0.15	–
298.15 K, x1 = 0.3492	1110.52 ± 0.16	–
298.15 K, x1 = 0.3533	–	1690.5 ± 1.2
298.15 K, x1 = 0.3925	1112.26 ± 0.16	–
298.15 K, x1 = 0.427	–	1674.4 ± 1.2
298.15 K, x1 = 0.4502	1113.99 ± 0.17	–
298.15 K, x1 = 0.4877	1114.87 ± 0.18	–
298.15 K, x1 = 0.5004	1115.13 ± 0.18	–
298.15 K, x1 = 0.5126	–	1658.3 ± 1.2
298.15 K, x1 = 0.5739	1116.38 ± 0.2	–
298.15 K, x1 = 0.58	1116.47 ± 0.2	–
298.15 K, x1 = 0.5907	–	1645.7 ± 1.2
298.15 K, x1 = 0.6465	1117.3 ± 0.21	–
298.15 K, x1 = 0.651	1117.35 ± 0.21	–
298.15 K, x1 = 0.7008	1117.83 ± 0.22	–
298.15 K, x1 = 0.7471	1118.22 ± 0.24	–
298.15 K, x1 = 0.7663	–	1627.2 ± 1.3
298.15 K, x1 = 0.7677	1118.37 ± 0.24	–
298.15 K, x1 = 0.82	1118.72 ± 0.26	–
298.15 K, x1 = 0.8623	1118.97 ± 0.27	–
298.15 K, x1 = 0.8792	1119.06 ± 0.28	–
298.15 K, x1 = 0.8917	–	1620 ± 1.4
298.15 K, x1 = 0.8975	1119.16 ± 0.29	–
298.15 K, x1 = 0.9203	1119.28 ± 0.29	–
298.15 K, x1 = 0.9514	1119.44 ± 0.31	–
298.15 K, x1 = 0.9628	–	1615.6 ± 1.4
298.15 K, x1 = 0.9692	1119.53 ± 0.31	–
298.15 K, x1 = 1	1119.69 ± 0.33	1613.5 ± 1.4
303.15 K, x1 = 0.001004	–	1513.5 ± 1.3
303.15 K, x1 = 0.002763	–	1520.4 ± 1.2
303.15 K, x1 = 0.007937	–	1539.9 ± 1.2
303.15 K, x1 = 0.0107	1007.53 ± 0.24	–
303.15 K, x1 = 0.01123	–	1551.5 ± 1.2
303.15 K, x1 = 0.01908	–	1577 ± 1.2
303.15 K, x1 = 0.02047	1017.29 ± 0.21	–
303.15 K, x1 = 0.0244	–	1592.6 ± 1.2
303.15 K, x1 = 0.03263	–	1614.3 ± 1.1
303.15 K, x1 = 0.03972	1033.87 ± 0.2	–
303.15 K, x1 = 0.0428	–	1637.2 ± 1.1
303.15 K, x1 = 0.05068	–	1652.5 ± 1.1
303.15 K, x1 = 0.05793	–	1664.7 ± 1.1
303.15 K, x1 = 0.06625	–	1676.8 ± 1.1
303.15 K, x1 = 0.07426	–	1686.6 ± 1.1
303.15 K, x1 = 0.08178	–	1694.5 ± 1.1
303.15 K, x1 = 0.08886	–	1700.8 ± 1.1
303.15 K, x1 = 0.0936	–	1704.5 ± 1.1
303.15 K, x1 = 0.09852	–	1707.8 ± 1.1
303.15 K, x1 = 0.102	–	1709.9 ± 1.1
303.15 K, x1 = 0.1059	–	1712.1 ± 1.1
303.15 K, x1 = 0.1101	–	1714.1 ± 1.1
303.15 K, x1 = 0.1102	–	1714.2 ± 1.1
303.15 K, x1 = 0.1147	–	1716 ± 1.1
303.15 K, x1 = 0.1193	–	1717.7 ± 1.1
303.15 K, x1 = 0.1248	–	1719.3 ± 1.1
303.15 K, x1 = 0.1295	–	1720.5 ± 1.1
303.15 K, x1 = 0.1308	–	1720.7 ± 1.1
303.15 K, x1 = 0.1337	–	1721.3 ± 1.1
303.15 K, x1 = 0.1393	–	1722.1 ± 1.1
303.15 K, x1 = 0.1423	–	1722.4 ± 1.1
303.15 K, x1 = 0.1457	–	1722.6 ± 1.1
303.15 K, x1 = 0.1695	–	1722.1 ± 1.1
303.15 K, x1 = 0.1857	–	1719.9 ± 1.1
303.15 K, x1 = 0.2042	–	1716.3 ± 1.1
303.15 K, x1 = 0.2252	–	1711.2 ± 1.1
303.15 K, x1 = 0.2499	–	1704.6 ± 1.1
303.15 K, x1 = 0.3027	–	1690 ± 1.1
303.15 K, x1 = 0.3394	–	1680.6 ± 1.1
303.15 K, x1 = 0.4052	–	1665.7 ± 1.2
303.15 K, x1 = 0.4916	–	1649 ± 1.2
303.15 K, x1 = 0.6074	–	1630 ± 1.2
303.15 K, x1 = 0.7552	–	1614 ± 1.3
303.15 K, x1 = 0.8683	–	1607.4 ± 1.4
303.15 K, x1 = 0.9616	–	1601.7 ± 1.4
303.15 K, x1 = 1	–	1599.1 ± 1.4
